Experimental data from PubChem BioAssay (NCI).
Where “and” joins values, the source holds several entries; their conditions need not be identical. Identical values can stand only once.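 These data come from cells grown in 96-well plates and exposed to compound for 48 hours at five concentrations. Abbreviation: GI50, concentration required for 50% inhibition of growth. TGI denotes the concentration required for complete inhibition of growth.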

What follows are compounds tested on NCI-H522 lung (assay: DTP human tumour cell line panel, 48 h).

SMILES	GI50	TGI
CC(C)(/C=C(\C#N)C(=O)N1CCC[C@@H](n2nc(-c3ccc(Oc4ccccc4)cc3F)c3c(N)ncnc32)C1)N1CCN(C2COC2)CC1	2.8 µM	17.7 µM
Cc1ccc(C)c(NC(=O)c2cccc([N+](=O)[O-])c2O)c1		67.2 µM
O=c1oc2ccc(-c3ccc(F)cc3F)cc2c(=O)n1-c1cccc(C(F)(F)F)c1	0.343 µM	5.61 µM
COC(=O)c1ccc2c(c1)C(=O)c1c-2n(CCCN=[N+]=[N-])c(=O)c2cc(OC)c(OC)cc12	> 100 µM	> 100 µM
O=C(Cc1ccc(F)c(Cl)c1)Nc1cc(C2(C(F)(F)F)CC2)nn1CC1CCCCC1	2.93 µM	9.67 µM
N#Cc1nn(-c2cc(=O)[nH]c3ccc(Cl)cc23)c(N)c1C#N	> 100 µM	> 100 µM
On1c(-c2ccccc2)c(-c2ccccc2N2CCCC2)c2ccccc21		> 100 µM
CCN1CCN(c2cc(C)c3cc(NC(=O)c4ccc(OC)c(OC)c4)ccc3n2)CC1	0.485 µM	16.9 µM
CC(C)(C)c1cc(C(P(=O)(O)O)P(=O)(O)O)cc(C(C)(C)C)c1O		> 100 µM
COC(=O)c1c2c(c(C)[n+]([O-])c1C)C(=O)C=C(NCc1ccc(F)cc1)C2=O	0.792 µM	3.2 µM
CC(C)C1=Cc2ccc3c(c2C(=O)C1=O)CCCC3(C)C		3.39 µM
CSc1nc(SC)c2c(C#N)[nH]nc2n1		> 100 µM
CCCC(=O)Nc1cn(COC)c(C(=O)N2C[C@@H]3C[C@]34C2=CC(=O)c2[nH]cc(C)c24)n1		13.5 µM and 4 µM
CC(=O)Nc1ccc(-c2csc(Nc3cccc(-c4csc(C)n4)c3)n2)cc1	7.72 µM	> 28 µM
CNCCOC(=O)/C=C1\CC[C@H]2[C@@H]([C@@H](O)C(=O)[C@@H]3[C@]2(C)CC[C@H](O)[C@]3(C)C(=O)OC)[C@H]1C	0.249 µM	0.813 µM

Each compound was assayed on OVCAR-8 ovarian (assay: DTP human tumour cell line panel, 48 h).

SMILES	GI50	TGI
CN1CCN(c2ccc(Nc3cc(-c4cccc(-n5ccc6cc(C7CC7)cc(F)c6c5=O)c4CO)cn(C)c3=O)nc2)CC1	4.84 µM	29.7 µM
COc1ccc2nc3ccccc3c(NCc3ccc(F)cc3)c2c1	2 µM	13.6 µM
CN(C)C1CCN(C(=O)c2ccc(NC(=O)Nc3ccc(-c4nc(N5CCOCC5)c5cccn5n4)cc3)cc2)CC1	0.116 µM	15.5 µM
COc1ccc(OCC(=O)O)c2c1CCCC2=O		> 100 µM
COc1cc(N=Nc2ccc(O)c3ncccc23)c2ncccc2c1	3.73 µM	> 100 µM
Cc1nc(Nc2ccc(Cl)cc2)sc1C(=O)NNC(=S)NN		43.7 µM
CCn1c(O)c(/C=N/NC(=O)C(C)c2ccc(CC(C)C)cc2)sc1=S (configuration not stated)	0.493 µM	> 100 µM
C[C@@H]1C[C@@H]([C@@H](CC2CC(=O)NC(=O)C2)OC(=O)CC(=O)c2ccccc2)C(=O)[C@@H](C)C1	0.405 µM	> 68.8 µM
N=c1c2c(-c3ccccc3)c(-c3ccccc3)n(Cc3ccccc3)c2ncn1C1CCC(O)CC1 (configuration not stated)	0.072 µM	19 µM
O=c1c(F)cn(Cc2ccc(C34CC5CC(CC(C5)C3)C4)c(O)c2)c(=O)n1Cc1ccc(C23CC4CC(CC(C4)C2)C3)c(O)c1	14.5 µM	45.5 µM
CCOC(=O)Nc1cc2c(c(N)n1)N=C(c1ccccc1)CO2	0.418 µM	> 32.9 µM
CC1CC2CCCC(O)=C2C(=O)O1 (configuration not stated)		> 100 µM
CC(C)(/C=C(\C#N)C(=O)N1CCC[C@@H](n2nc(-c3ccc(Oc4ccccc4)cc3F)c3c(N)ncnc32)C1)N1CCN(C2COC2)CC1	10.8 µM	34.3 µM
Cc1ccc(C)c(NC(=O)c2cccc([N+](=O)[O-])c2O)c1		> 100 µM
O=c1oc2ccc(-c3ccc(F)cc3F)cc2c(=O)n1-c1cccc(C(F)(F)F)c1	2.05 µM	> 100 µM
COC(=O)c1ccc2c(c1)C(=O)c1c-2n(CCCN=[N+]=[N-])c(=O)c2cc(OC)c(OC)cc12	> 100 µM	> 100 µM
O=C(Cc1ccc(F)c(Cl)c1)Nc1cc(C2(C(F)(F)F)CC2)nn1CC1CCCCC1	4.96 µM	> 15 µM
N#Cc1nn(-c2cc(=O)[nH]c3ccc(Cl)cc23)c(N)c1C#N	> 100 µM	> 100 µM
On1c(-c2ccccc2)c(-c2ccccc2N2CCCC2)c2ccccc21		> 100 µM
